According to patent US7763630B2 (priority 2007, dated 2010):

Legend:
[1] = tested on: recombinant NL-Rluc virus; test: Inhibition of HIV replication (NL-Rluc virus); format: cell-based; settings: Human immunodeficiency virus 1, read-out: Antiviral Activity
purified integrase = purified integrase (Human immunodeficiency virus type 1 group M subtype B, UniProt P12497); test: HIV-Integrase binding assay (competition with radiolabeled compound A)
Method: HIV-Integrase binding assay. In this assay competitive binding experiments with test compounds and a radiolabeled integrase inhibitor (compound A) are performed against purified integrase. SPA bead/DNA/enzyme complexes were prepared as for the integrase inhibition assay except, to each well, 0.69 μl of integrase enzyme (0.42 mg/μl) was used per 2 μl of LTR DNA-attached scintillation proximity beads (stock 50 mg/ml). Binding reactions were carried out in 96-well white polystyrene assay plates (Corning, #3600). The following was added sequentially to each well: 20 μl of water or 20 μl of human serum (Cellgro Cat #35-060-CL), 5 μl of serially diluted compound (in 50% DMSO/50% integrase SPA buffer), 5 μl of [^3H]-compound I (6,000 cpm/μl in SPA buffer) and 20 μl of bead/DNA/enzyme complex. The plates were shaken for 2 hours and then allowed to sit at room temperature without shaking overnight. The [^3H]-compound I binding was measured using a Topcount scintillation counter. Cheng and Prusoff equations were used to convert the inhibition of compound 1 binding into the corresponding Ki value.

HIV-integrase = HIV-integrase (Human immunodeficiency virus type 1 group M subtype B, UniProt P12497); test: HIV-Integrase Inhibition Activity (SPA strand transfer assay)
Method: HIV-Integrase Inhibition Activity. To evaluate in-vitro activity against HIV-integrase, 5 pmole of biotin labeled substrate DNA was bound to 100 μg of Streptavidin coated PVT SPA beads (Amersham Pharmacia Biotech). Recombinant integrase (0.26 ng) was incubated with the beads for 90 min at 37° C. Unbound enzyme was removed by washing the complex followed by addition of inhibitors and 0.1 fmol of P33 labeled target DNA. The reaction was stopped by adding EDTA to a final concentration of 10 mM. Samples were counted in TopCountNXT (Packard) and the CPM was used as a measure of integration. […] Activity equal to A refers to a compound having IC50=0.002 to 0.10 μM while B and C denote compounds having IC50=0.1 to 1.0 μM and IC50≧1.0 μM respectively.

Structure (SMILES) | EC50 [1] [nM] | Ki (purified integrase) [nM] | IC50 (HIV-integrase) [nM]
Cn1c(C2CCOCC2)nc(C(=O)NCc2ccc(F)cc2S(C)(=O)=O)c(O)c1=O [Example 22, N-(4-fluoro-2-(methylsulfonyl)benzyl)-5-hydroxy-1-methyl-6-oxo-2-(tetrahydro-2H-pyran-4-yl)-1,6-dihydropyrimidine-4-carboxamide] | 3 to 100 | 3 to 50 | 
Cc1cnnn1-c1cc(F)ccc1CNC(=O)c1nc(C2CCOCC2)n(C)c(=O)c1O [Example 20, N-(4-fluoro-2-(5-methyl-1H-1,2,3-triazol-1-yl)benzyl)-5-hydroxy-1-methyl-6-oxo-2-(tetrahydro-2H-pyran-4-yl)-1,6-dihydropyrimidine-4-carboxamide] | 3 to 100 | 3 to 50 | 
CN(C)S(=O)(=O)c1cc(F)ccc1CNC(=O)c1nc(C2CCOC2)n(C)c(=O)c1O (stereo not drawn) [Example 10, N-(2-(N,N-dimethylsulfamoyl)-4-fluorobenzyl)-5-hydroxy-1-methyl-6-oxo-2-(tetrahydrofuran-3-yl)-1,6-dihydropyrimidine-4-carboxamide] | 3 to 100 | 3 to 50 | 
Cn1ncnc1-c1cc(F)ccc1CNC(=O)c1nc(C2CCOCC2)n(C)c(=O)c1O [Example 21, N-(4-fluoro-2-(1-methyl-1H-1,2,4-triazol-5-yl)benzyl)-5-hydroxy-1-methyl-6-oxo-2-(tetrahydro-2H-pyran-4-yl)-1,6-dihydropyrimidine-4-carboxamide] | 3 to 100 | 1 to 3 | 
Cn1cnnc1-c1cc(F)ccc1CNC(=O)c1nc(C2CCOCC2)n(C)c(=O)c1O [Example 26, N-(4-fluoro-2-(4-methyl-4H-1,2,4-triazol-3-yl)benzyl)-5-hydroxy-1-methyl-6-oxo-2-(tetrahydro-2H-pyran-4-yl)-1,6-dihydropyrimidine-4-carboxamide] | 3 to 100 | 1 to 3 | 
Cc1cc(CNC(=O)c2nc(C3CCOC3)n(C)c(=O)c2O)ccc1F (stereo not drawn) [Example 2, N-(4-Fluoro-3-methylbenzyl)-5-hydroxy-1-methyl-6-oxo-2-(tetrahydrofuran-3-yl)-1,6-dihydropyrimidine-4-carboxamide] | 3 to 100 |  | 2 to 100
Cn1c(C2CCOC2)nc(C(=O)NCc2ccccc2N2CCCCS2(=O)=O)c(O)c1=O (stereo not drawn) [Example 8] | 3 to 100 | 3 to 50 | 
CN(C)S(=O)(=O)c1cc(F)ccc1CNC(=O)c1nc(C2CCOCC2)n(C)c(=O)c1O [Example 23, N-(2-(N,N-dimethylsulfamoyl)-4-fluorobenzyl)-5-hydroxy-1-methyl-6-oxo-2-(tetrahydro-2H-pyran-4-yl)-1,6-dihydropyrimidine-4-carboxamide] | 3 to 100 | 3 to 50 | 
Cn1cnnc1-c1cc(F)ccc1CNC(=O)c1nc(C2CCOC2)n(C)c(=O)c1O (stereo not drawn) [Example 11, N-(4-fluoro-2-(4-methyl-4H-1,2,4-triazol-3-yl)benzyl)-5-hydroxy-1-methyl-6-oxo-2-(tetrahydrofuran-3-yl)-1,6-dihydropyrimidine-4-carboxamide] | 3 to 100 | 1 to 3 | 
CSC1COCC1c1nc(C(=O)NCc2ccc(F)cc2)c(O)c(=O)n1C (stereo not drawn) [Example 16, N-(4-Fluorobenzyl)-5-hydroxy-1-methyl-2-(4-(methylthio)tetrahydrofuran-3-yl)-6-oxo-1,6-dihydropyrimidine-4-carboxamide] | 3 to 100 |  | 2 to 100
Cc1ncnn1-c1cc(F)ccc1CNC(=O)c1nc(C2CCOC2)n(C)c(=O)c1O (stereo not drawn) [Example 4, N-(4-fluoro-2-(5-methyl-1H-1,2,4-triazol-1-yl)benzyl)-5-hydroxy-1-methyl-6-oxo-2-(tetrahydrofuran-3-yl)-1,6-dihydropyrimidine-4-carboxamide] | 3 to 100 | 3 to 50 | 
Cc1ncnn1-c1cc(F)ccc1CNC(=O)c1nc(C2CCOCC2)n(C)c(=O)c1O [Example 19, N-(4-fluoro-2-(5-methyl-1H-1,2,4-triazol-1-yl)benzyl)-5-hydroxy-1-methyl-6-oxo-2-(tetrahydro-2H-pyran-4-yl)-1,6-dihydropyrimidine-4-carboxamide] | 3 to 100 | 3 to 50 | 
Cn1c(C2CCOCC2)nc(C(=O)NCc2ccc(F)cc2-n2cncn2)c(O)c1=O [Example 18, N-(4-fluoro-2-(1H-1,2,4-triazol-1-yl)benzyl)-5-hydroxy-1-methyl-6-oxo-2-(tetrahydro-2H-pyran-4-yl)-1,6-dihydropyrimidine-4-carboxamide] | 3 to 100 | 3 to 50 | 
Cn1c(C2CCOCC2)nc(C(=O)NCc2ccccc2N2CCCCS2(=O)=O)c(O)c1=O [Example 25] | 3 to 100 | 3 to 50 | 
Cn1ncnc1-c1cc(F)ccc1CNC(=O)c1nc(C2CCOC2)n(C)c(=O)c1O (stereo not drawn) [Example 6, N-(4-fluoro-2-(1-methyl-1H-1,2,4-triazol-5-yl)benzyl)-5-hydroxy-1-methyl-6-oxo-2-(tetrahydrofuran-3-yl)-1,6-dihydropyrimidine-4-carboxamide] | 3 to 100 | 3 to 50 | 
CN1CCN(c2cc(F)ccc2CNC(=O)c2nc(C3CCOC3)n(C)c(=O)c2O)C1=O (stereo not drawn) [Example 12, N-(4-fluoro-2-(3-methyl-2-oxoimidazolidin-1-yl)benzyl)-5-hydroxy-1-methyl-6-oxo-2-(tetrahydrofuran-3-yl)-1,6-dihydropyrimidine-4-carboxamide] | 3 to 100 | 1 to 3 | 
Cn1c(C2CCOC2)nc(C(=O)NCc2ccc(F)cc2-n2cncn2)c(O)c1=O (stereo not drawn) [Example 3, N-(4-fluoro-2-(1H-1,2,4-triazol-1-yl)benzyl)-5-hydroxy-1-methyl-6-oxo-2-(tetrahydrofuran-3-yl)-1,6-dihydropyrimidine-4-carboxamide] | 3 to 100 | 1 to 3 | 
Cn1c(C2COCC2O)nc(C(=O)NCc2ccc(F)cc2)c(O)c1=O (stereo not drawn) [Example 15, N-(4-Fluorobenzyl)-5-hydroxy-2-(4-hydroxytetrahydrofuran-3-yl)-1-methyl-6-oxo-1,6-dihydropyrimidine-4-carboxamide] | 3 to 100 |  | 2 to 100
Cn1c(C2CCOC2)nc(C(=O)NCc2ccc(F)cc2)c(O)c1=O (stereo not drawn) [Example 1, N-(4-Fluorobenzyl)-5-hydroxy-1-methyl-6-oxo-2-(tetrahydrofuran-3-yl)-1,6-dihydropyrimidine-4-carboxamide] | 3 to 100 |  | 2 to 100
Cn1c(C2CCOCC2)nc(C(=O)NCc2ccc(F)cc2)c(O)c1=O [Example 17, N-(4-Fluorobenzyl)-5-hydroxy-1-methyl-6-oxo-2-(tetrahydro-2H-pyran-4-yl)-1,6-dihydropyrimidine-4-carboxamide] | 3 to 100 |  | 2 to 100
Cc1cnnn1-c1cc(F)ccc1CNC(=O)c1nc(C2CCOC2)n(C)c(=O)c1O (stereo not drawn) [Example 5, N-(4-fluoro-2-(5-methyl-1H-1,2,3-triazol-1-yl)benzyl)-5-hydroxy-1-methyl-6-oxo-2-(tetrahydrofuran-3-yl)-1,6-dihydropyrimidine-4-carboxamide] | 3 to 100 | 3 to 50 | 
Cn1c(C2CCOC2)nc(C(=O)NCc2ccc(F)cc2N2CCN(CCO)C2=O)c(O)c1=O (stereo not drawn) [Example 14, N-(4-fluoro-2-(3-(2-hydroxyethyl)-2-oxoimidazolidin-1-yl)benzyl)-5-hydroxy-1-methyl-6-oxo-2-(tetrahydrofuran-3-yl)-1,6-dihydropyrimidine-4-carboxamide] | 3 to 100 | 1 to 3 | 
Cn1c(C2CCOC2)nc(C(=O)NCc2ccc(F)cc2S(C)(=O)=O)c(O)c1=O (stereo not drawn) [Example 7, N-(4-fluoro-2-(methylsulfonyl)benzyl)-5-hydroxy-1-methyl-6-oxo-2-(tetrahydrofuran-3-yl)-1,6-dihydropyrimidine-4-carboxamide] | 3 to 100 | 3 to 50 | 
COCCN1CCN(c2cc(F)ccc2CNC(=O)c2nc(C3CCOC3)n(C)c(=O)c2O)C1=O (stereo not drawn) [Example 13, N-(4-fluoro-2-(3-(2-methoxyethyl)-2-oxoimidazolidin-1-yl)benzyl)-5-hydroxy-1-methyl-6-oxo-2-(tetrahydrofuran-3-yl)-1,6-dihydropyrimidine-4-carboxamide] | 3 to 100 | 1 to 3 | 
